The source of these data is patent US20210179577A1, “AROMATIC SULFONAMIDE DERIVATIVES FOR THE TREATMENT OF ISCHEMIC STROKE” (Bayer Aktiengesellschaft, priority 2017, published 2021).

What all share (format): cell-based
What all share (conditions): agonist Mg-ATP at EC80

One assay deals with T1, human P2X4 (Homo sapiens, UniProt Q99571).
T1 sequence (Q99571 1-388): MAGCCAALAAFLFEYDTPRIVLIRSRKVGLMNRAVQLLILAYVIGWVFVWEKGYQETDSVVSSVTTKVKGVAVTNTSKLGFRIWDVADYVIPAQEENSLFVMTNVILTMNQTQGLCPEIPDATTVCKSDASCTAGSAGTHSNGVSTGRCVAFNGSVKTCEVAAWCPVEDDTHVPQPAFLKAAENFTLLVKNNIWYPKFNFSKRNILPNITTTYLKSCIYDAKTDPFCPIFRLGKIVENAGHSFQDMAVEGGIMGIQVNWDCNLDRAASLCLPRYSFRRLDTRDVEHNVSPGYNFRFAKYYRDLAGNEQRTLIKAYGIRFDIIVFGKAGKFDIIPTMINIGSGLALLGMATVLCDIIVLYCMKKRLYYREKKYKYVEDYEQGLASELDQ
Description: FLIPR assay, human P2X4 1321N1 Astrocytoma Cells. Further details: expressed in transfected cells. The method, then:
(§1) 1321N1 Astrocytoma cells stably expressing human P2X4 or rat P2X4 or mouse P2X4 were plated in Collagen ITO-treated microplate at a seeding density of 10000 cells/well and incubated overnight. P2X4 function was assessed by measuring intracellular calcium changes using the calcium-chelating dye Fluo8-AM (Molecular Devices) on a fluorescent imaging plate reader (FLEX/FLIPR station; Molecular Devices). On the day of the assay, the medium was removed and the cells were incubated for 30 min at […] and 5% CO2 in 30 μL of dye buffer (Hank's balanced salt solution, 10 mM HEPES, 1.8 mM CaCl2, 1 mM MgCl2, 2 mM probenecid, 5 mM D-glucose monohydrate, 5 μM Fluo8-AM, pH=7.4). Compounds diluted in probenecid buffer (Hank's balanced salt solution, 10 mM HEPES, 1.8 mM CaCl2, 1 mM MgCl2, 2 mM probenecid, 5 mM D-glucose monohydrate, pH=7.4) were added in a volume of 10 μL and allowed to incubate for 30 min at room temperature. The final assay DMSO concentration was 0.25%. The agonist, Mg-ATP (Sigma), was added in a volume of 10 μL at a concentration representing the EC80 value. EC80 was determined to be 0.5 μM for human and mouse P2X4 and 5 μM for rat P2X4. The fluorescence was measured for an interval of 120 sec at 2 sec intervals. The excitation and emission wavelengths used to monitor fluorescence were 470-495 nm and 515-575 nm, respectively. The data was analyzed based on the increase in peak relative fluorescence units (RFU) compared to the basal fluorescence and the data was normalized to the agonist control. The compounds were tested in triplicates per plate and mean values were plotted in Excel XLFit to determine IC50 values, percentage of maximal inhibition and the Hill coefficients.

The target in another assay is T2, rat P2X4 (Rattus norvegicus, UniProt P51577).
T2 construct: expressed in transfected cells; host or cells: 1321N1 astrocytoma cells
T2 sequence (P51577 1-388): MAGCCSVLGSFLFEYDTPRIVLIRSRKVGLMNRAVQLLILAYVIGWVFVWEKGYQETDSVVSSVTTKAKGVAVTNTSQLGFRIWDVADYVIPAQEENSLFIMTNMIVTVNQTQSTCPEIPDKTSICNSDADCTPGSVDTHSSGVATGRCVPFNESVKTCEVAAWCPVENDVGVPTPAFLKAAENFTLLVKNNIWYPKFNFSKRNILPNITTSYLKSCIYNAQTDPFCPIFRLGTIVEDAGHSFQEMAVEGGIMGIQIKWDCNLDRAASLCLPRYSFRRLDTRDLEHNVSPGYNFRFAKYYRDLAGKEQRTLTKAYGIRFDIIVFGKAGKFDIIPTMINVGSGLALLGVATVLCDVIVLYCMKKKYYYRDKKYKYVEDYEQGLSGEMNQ
As to the kind of experiment: FLIPR assay, rat P2X4 1321N1 Astrocytoma Cells. The method, then:
as §1

For another assay, the target named is T3, mouse P2X4 (Mus musculus, UniProt Q9JJX6).
T3 construct: expressed in transfected cells; host or cells: 1321N1 astrocytoma cells
T3 sequence (Q9JJX6 1-388): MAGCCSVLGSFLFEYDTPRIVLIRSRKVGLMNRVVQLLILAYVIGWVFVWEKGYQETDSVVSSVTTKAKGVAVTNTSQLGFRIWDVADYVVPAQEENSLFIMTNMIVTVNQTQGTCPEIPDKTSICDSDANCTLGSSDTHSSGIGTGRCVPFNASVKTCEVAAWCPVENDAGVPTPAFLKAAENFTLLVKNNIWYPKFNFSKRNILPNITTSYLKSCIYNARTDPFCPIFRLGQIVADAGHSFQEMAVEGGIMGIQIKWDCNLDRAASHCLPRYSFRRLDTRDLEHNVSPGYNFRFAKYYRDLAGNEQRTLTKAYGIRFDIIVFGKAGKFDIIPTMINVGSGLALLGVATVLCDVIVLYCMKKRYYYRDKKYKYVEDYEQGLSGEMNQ
Description: FLIPR assay, mouse P2X4 1321N1 Astrocytoma Cells. On the procedure:
as §1

Structures are written as SMILES.

As for `NS(=O)(=O)c1cc(NC(=O)Cc2ccccc2Cl)ccc1-n1cc(C(F)(F)F)cn1` [Example 19, 2-(2-Chlorophenyl)-N-{3-sulfamoyl-4-[4-(trifluoromethyl)-1H-pyrazol-1-yl]phenyl}acetamide], at human P2X4, the “Human P2X4 1321N1 Astrocytoma Cells (FLIPR Assay) avg Efficacy” value (“Human P2X4 1321N1 Astrocytoma Cells” for short) was found to be 60% and the IC50 – broadly, the concentration at which inhibition is half-maximal – amounted to 57 nM. Besides, at rat P2X4, the IC50 came out at 71 nM and the “Rat P2X4 1321N1 Astrocytoma Cells (FLIPR Assay) avg Efficacy” value (from here on “Rat P2X4 1321N1 Astrocytoma Cells”) amounted to 57%. For the same molecule, at mouse P2X4, the 50% inhibitory concentration (IC50) amounted to 43 nM and the “Mouse P2X4 1321N1 Astrocytoma Cells (FLIPR Assay) avg Efficacy” value (“Mouse P2X4 1321N1 Astrocytoma Cells” below) came out at 69%.
For `N#Cc1cnn(-c2ccc(NC(=O)Cc3ccccc3Cl)cc2S(N)(=O)=O)c1` [Example 39, 2-(2-Chlorophenyl)-N-[4-(4-cyano-1H-pyrazol-1-yl)-3-sulfamoylphenyl]acetamide], at human P2X4, the “Human P2X4 1321N1 Astrocytoma Cells” value is recorded as 83% and the IC50 stood at 64 nM. Besides, at rat P2X4, the IC50 stood at 308 nM and the “Rat P2X4 1321N1 Astrocytoma Cells” value came out at 87%. Also, at mouse P2X4, the concentration for half-maximal inhibition (IC50) was found to be 37 nM and the “Mouse P2X4 1321N1 Astrocytoma Cells” value stood at 87%.
For the molecule `NS(=O)(=O)c1cc(NC(=O)Cc2ccccc2Cl)ccc1-c1cnn(C(F)F)c1` [Example 326, 2-(2-Chlorophenyl)-N-{4-[1-(difluoromethyl)-1H-pyrazol-4-yl]-3-sulfamoylphenyl}acetamide], on human P2X4, the “Human P2X4 1321N1 Astrocytoma Cells” value stood at 80% and the IC50 stood at 46 nM. On rat P2X4, the IC50 came out at 325 nM and the “Rat P2X4 1321N1 Astrocytoma Cells” value is reported as 99%. For the same molecule, on mouse P2X4, the IC50 turned out to be 26 nM and the “Mouse P2X4 1321N1 Astrocytoma Cells” value was found to be 87%.
